This is an account of results in patent publication US20200046712A1, “PROCESS FOR MAKING 1,3,7- TRIMETHYLURIC ACID WATER SOLUBLE SALTS OR CO-CRYSTALS AND THEIR USAGE IN DIETARY SUPPLEMENTS OR FUNCTIONAL FOODS FORMULATIONS” (Arcadia Biotechnology Ltd., priority 2018, published 2020).

This series in a line: Solubility in water. The series is classed as physicochemical. The following applies: 500 mg upon stirring in 8 oz of room temperature water.

Where a name gives a salt, the structure may show the parent alone.

In the case of `Cn1c(=O)c2c([nH]c(=O)n2C)n(C)c1=O` [1,3,7-trimethyluric acid sodium salt], the solubility in water entry is listed as “dissolved completely”.
